In brackets after ≈: the same amount, converted by molar mass. Activity calls are given as the source filed them. No cut-off for these calls is given here.
Tests used:
[1] = test system: Cryptococcus neoformans; assay: Antifungal activity against Cryptococcus neoformans H99 after 48 hrs by growth curve assay; type: functional; conditions: for MIC80: var grubii H99 
[2] = test system: Cryptococcus neoformans; assay: Antifungal activity against Cryptococcus neoformans H99 after 72 hrs by growth curve assay; type: functional; conditions: var grubii H99 
[3] = Clearance in ICR mouse liver microsomes at 1 uM measured up to 45 mins in presence of NADPH by LC-MS/MS analysis; type: ADME, Microsome; conditions: 0.75 h
[4] = test system: Cryptococcus gattii; assay: Antifungal activity against Cryptococcus gattii ATCC 14116 after 72 hrs by spectrophotometery; conditions: ATCC 14116, 72 h
[5] = test system: Cryptococcus neoformans; assay: Inhibition of melanin production in Cryptococcus neoformans H99 at 2.5 ug/ml; type: functional, organism-based; conditions: var grubii H99
[6] = test system: Cryptococcus neoformans; assay: Inhibition of urease production in Cryptococcus neoformans H99 at 10 ug/ml; type: functional, organism-based; conditions: var grubii H99
[7] = test system: Cryptococcus neoformans; assay: Antifungal activity against Cryptococcus neoformans ATCC 34877 after 72 hrs by spectrophotometery; type: functional; conditions: ATCC 34877, 72 h
[8] = Solubility of the compound; type: physicochemical
[9] = test system: Candida parapsilosis; assay: Antifungal activity against Candida parapsilosis 5008 after 48 hrs by spectrophotometery; type: functional; conditions: Lodderomyces parapsilosis, 5008, 48 h
[10] = test system: Candida albicans; assay: Antifungal activity against Candida albicans 7781 after 48 hrs by spectrophotometery; type: functional; conditions: Candida albicans, 7781, 48 h
[11] = test system: Cryptococcus neoformans; assay: Antibiofilm activity against Cryptococcus neoformans H99 at 16 ug/ml after 90 mins by XTT assay; type: functional, organism-based; conditions: var grubii H99
[12] = test system: Trichophyton rubrum; assay: Antifungal activity against Trichophyton rubrum TIA after 48 hrs by spectrophotometery; type: functional
[13] = test system: HUVEC; assay: Cytotoxicity against human HUVEC; type: cell-based
[14] = test system: Nannizzia gypsea; assay: Antifungal activity against Microsporum gypseum MZC after 48 hrs by spectrophotometery; type: functional
[15] = test system: Nakaseomyces glabratus; assay: Antifungal activity against Candida glabrata 8535 after 48 hrs by spectrophotometery; type: functional; conditions: Nakaseomyces glabratus, 8535, 48 h
[16] = test system: Cryptococcus neoformans; assay: Antifungal activity against Cryptococcus neoformans H99 assessed as inhibition of microbial growth at 8 ug/ml after 12 to 48 hrs by growth curve assay; type: functional; conditions: var grubii H99, read-out: GI
[17] = Protein binding in mouse plasma; type: ADME, cell-free
[18] = test system: Candida albicans; assay: Antifungal activity against Candida albicans 0304103 after 48 hrs by spectrophotometery; type: functional; conditions: Candida albicans, 0304103, 48 h
[19] = test system: Aspergillus fumigatus; assay: Antifungal activity against Aspergillus fumigatus 7544 after 48 hrs by spectrophotometery; type: functional; conditions: Aspergillus fumigatus, 7544, 48 h
[20] = Half life in ICR mouse liver microsomes at 1 uM measured up to 45 mins in presence of NADPH by LC-MS/MS analysis; type: ADME, Microsome

## COc1ccccc1NCCCn1c2c(c3ccccc31)CCNC2.O=C(O)C(F)(F)F
[1]
  MIC80: 32 µg/mL

## COc1cccc(NCCCn2c3c(c4ccccc42)CCNC3)c1.O=C(O)C(F)(F)F
[1]
  MIC80: 32 µg/mL

## COc1cccc2c3c(n(CCCOc4ccc(Cl)cc4)c12)CNCC3.O=C(O)C(F)(F)F
[1]
  MIC80: 4 µg/mL

## O=C1c2ccccc2C(=O)N1CCCn1c2c(c3ccccc31)CCNC2
[1]
  MIC80: 64 µg/mL (≈ 178 µM)

## Cc1ccc2c(c1)c1c(n2CCCOc2ccc(Cl)cc2)CNCC1.O=C(O)C(F)(F)F
[2]
  MIC80: 2 µg/mL
[3]
  scaled CLint: 477 mL/min/kg
[4]
  MIC80: 2 µg/mL
[5]
  inhibition: Active
[6]
  inhibition: inactive
[7]
  MIC80: 2 µg/mL
[8]
  solubility: 57.5 µg/mL
[9]
  MIC80: 8 µg/mL
[10]
  MIC80: 4 µg/mL
[11]
  Activity: Active
[12]
  MIC80: 4 µg/mL
[13]
  Activity: Non-Toxic
[14]
  MIC80: 8 µg/mL
[15]
  MIC80: 2 µg/mL
[1]; var grubii H99
  Activity: Dose-dependent effect
[1]
  MIC80: 1 µg/mL
[16]
  inhibition of growth at 8 µg/mL: 100%
[17]
  PPB: Active
[18]
  MIC80: 4 µg/mL
[19]
  MIC80: 8 µg/mL
[20]
  half-life at 1 µM: 11 min

## Brc1cccc(NCCCn2c3c(c4ccccc42)CCNC3)c1.O=C(O)C(F)(F)F
[1]
  MIC80: 8 µg/mL

## COc1ccccc1N1CCN(CCCn2c3c(c4ccccc42)CCNC3)CC1
[1]
  MIC80: 64 µg/mL (≈ 158 µM)

## c1ccc2c(c1)c1c(n2CCCNC2CCCC2)CNCC1
[1]
  MIC80: 64 µg/mL (≈ 215 µM)

## Fc1cccc(NCCCn2c3c(c4ccccc42)CCNC3)c1.O=C(O)C(F)(F)F
[1]
  MIC80: 16 µg/mL

## Clc1ccc(OCCCn2c3c(c4c(Br)cccc42)CCNC3)cc1.O=C(O)C(F)(F)F
[1]
  MIC80: 8 µg/mL

## COc1ccc(N2CCN(CCCn3c4c(c5ccccc53)CCNC4)CC2)cc1
[1]
  MIC80: 64 µg/mL (≈ 158 µM)

## Fc1cccc2c1c1c(n2CCCOc2ccc(Cl)cc2)CNCC1.O=C(O)C(F)(F)F
[1]
  MIC80: 4 µg/mL

## Clc1ccc(OCCCn2c3c(c4cc(Br)ccc42)CCNC3)cc1.O=C(O)C(F)(F)F
[8]
  solubility: 19.3 µg/mL
[1]
  MIC80: 0.5 µg/mL

## c1ccc2c(c1)c1c(n2CCCN2CCCC2)CNCC1
[1]
  MIC80: 64 µg/mL (≈ 226 µM)

## COc1ccc2c3c(n(CCCOc4ccc(Cl)cc4)c2c1)CNCC3.O=C(O)C(F)(F)F
[1]
  MIC80: 2 µg/mL

## c1ccc(N2CCN(CCCn3c4c(c5ccccc53)CCNC4)CC2)cc1
[1]
  MIC80: 32 µg/mL (≈ 85.4 µM)

## Clc1ccc(OCCCn2c3c(c4ccc(Br)cc42)CCNC3)cc1.O=C(O)C(F)(F)F
[1]
  MIC80: 2 µg/mL

## c1ccc(CN2CCN(CCCn3c4c(c5ccccc53)CCNC4)CC2)cc1
[1]
  MIC80: 32 µg/mL (≈ 82.4 µM)

## Clc1ccc(OCCCn2c3c(c4cccc(Cl)c42)CCNC3)cc1.O=C(O)C(F)(F)F
[1]
  MIC80: 2 µg/mL

## Fc1ccc2c3c(n(CCCOc4ccc(Cl)cc4)c2c1)CNCC3.O=C(O)C(F)(F)F
[1]
  MIC80: 2 µg/mL

## Cc1ccc(NCCCn2c3c(c4ccccc42)CCNC3)cc1.O=C(O)C(F)(F)F
[1]
  MIC80: 16 µg/mL

## CN(C)CCn1c2c(c3ccccc31)CCNC2
[1]
  MIC80: 64 µg/mL (≈ 263 µM)

## c1ccc(C2CCN(CCCn3c4c(c5ccccc53)CCNC4)CC2)cc1
[1]
  MIC80: 32 µg/mL (≈ 85.7 µM)

## Clc1ccccc1NCCCn1c2c(c3ccccc31)CCNC2.O=C(O)C(F)(F)F
[1]
  MIC80: 8 µg/mL

## Fc1ccc(NCCCn2c3c(c4ccccc42)CCNC3)cc1.O=C(O)C(F)(F)F
[1]
  MIC80: 16 µg/mL

## COc1ccc(NCCCn2c3c(c4ccccc42)CCNC3)cc1.O=C(O)C(F)(F)F
[1]
  MIC80: 32 µg/mL

## O=C(O)C(F)(F)F.O=[N+]([O-])c1ccc(OCCCn2c3c(c4ccccc42)CCNC3)cc1
[1]
  MIC80: 16 µg/mL

## COc1cccc(OCCCn2c3c(c4ccccc42)CCNC3)c1.O=C(O)C(F)(F)F
[1]
  MIC80: 16 µg/mL

## CCOc1ccc(NCCCn2c3c(c4ccccc42)CCNC3)cc1.O=C(O)C(F)(F)F
[1]
  MIC80: 32 µg/mL

## c1ccc2c(c1)c1c(n2CCCN2CCCCC2)CNCC1
[1]
  MIC80: 64 µg/mL (≈ 215 µM)

## Brc1ccccc1OCCCn1c2c(c3ccccc31)CCNC2.O=C(O)C(F)(F)F
[1]
  MIC80: 8 µg/mL

## CC1CCCN(CCCn2c3c(c4ccccc42)CCNC3)C1 (stereo unspecified)
[1]
  MIC80: 32 µg/mL (≈ 103 µM)

## COc1ccccc1OCCCn1c2c(c3ccccc31)CCNC2.O=C(O)C(F)(F)F
[1]
  MIC80: 32 µg/mL

## CCOc1ccccc1NCCCn1c2c(c3ccccc31)CCNC2.O=C(O)C(F)(F)F
[1]
  MIC80: 32 µg/mL

## CCOc1cccc(NCCCn2c3c(c4ccccc42)CCNC3)c1.O=C(O)C(F)(F)F
[1]
  MIC80: 64 µg/mL

## Fc1ccc(OCCCn2c3c(c4ccccc42)CCNC3)cc1.O=C(O)C(F)(F)F
[1]
  MIC80: 8 µg/mL

## Cc1cccc2c3c(n(CCCOc4ccc(Cl)cc4)c12)CNCC3.O=C(O)C(F)(F)F
[1]
  MIC80: 2 µg/mL

## COc1ccc2c(c1)c1c(n2CCCOc2ccc(Cl)cc2)CNCC1.O=C(O)C(F)(F)F
[1]
  MIC80: 4 µg/mL

## c1ccc2c(c1)c1c(n2CCN2CCOCC2)CNCC1
[1]
  MIC80: 64 µg/mL (≈ 224 µM)

## Cc1ccc(OCCCn2c3c(c4ccccc42)CCNC3)cc1.O=C(O)C(F)(F)F
[1]
  MIC80: 8 µg/mL

## Clc1ccc(NCCCn2c3c(c4ccccc42)CCNC3)cc1.O=C(O)C(F)(F)F
[1]
  MIC80: 8 µg/mL

## Fc1cccc(OCCCn2c3c(c4ccccc42)CCNC3)c1.O=C(O)C(F)(F)F
[1]
  MIC80: 8 µg/mL

## Clc1ccc(OCCCn2c3c(c4cccc(Br)c42)CCNC3)cc1.O=C(O)C(F)(F)F
[1]
  MIC80: 4 µg/mL

## Brc1cccc(OCCCn2c3c(c4ccccc42)CCNC3)c1.O=C(O)C(F)(F)F
[1]
  MIC80: 4 µg/mL

## Brc1ccc(OCCCn2c3c(c4ccccc42)CCNC3)cc1.O=C(O)C(F)(F)F
[1]
  MIC80: 4 µg/mL

## Fc1ccccc1NCCCn1c2c(c3ccccc31)CCNC2.O=C(O)C(F)(F)F
[1]
  MIC80: 16 µg/mL

## Clc1ccccc1OCCCn1c2c(c3ccccc31)CCNC2.O=C(O)C(F)(F)F
[1]
  MIC80: 4 µg/mL

## Clc1ccc(OCCCn2c3c(c4ccccc42)CCNC3)cc1.O=C(O)C(F)(F)F
[1]
  MIC80: 4 µg/mL

## COc1ccc(OCCCn2c3c(c4ccccc42)CCNC3)cc1.O=C(O)C(F)(F)F
[1]
  MIC80: 16 µg/mL

## Clc1ccc(OCCCn2c3c(c4ccc(Cl)cc42)CCNC3)cc1.O=C(O)C(F)(F)F
[1]
  MIC80: 2 µg/mL

## CCN(CC)CCCn1c2c(c3ccccc31)CCNC2
[1]
  MIC80: 64 µg/mL (≈ 224 µM)

## Brc1ccc(NCCCn2c3c(c4ccccc42)CCNC3)cc1.O=C(O)C(F)(F)F
[1]
  MIC80: 8 µg/mL

## Fc1ccccc1OCCCn1c2c(c3ccccc31)CCNC2.O=C(O)C(F)(F)F
[1]
  MIC80: 16 µg/mL

## Clc1cccc(OCCCn2c3c(c4ccccc42)CCNC3)c1.O=C(O)C(F)(F)F
[1]
  MIC80: 4 µg/mL

## Clc1ccc(OCCCn2c3c(c4c(Cl)cccc42)CCNC3)cc1.O=C(O)C(F)(F)F
[1]
  MIC80: 4 µg/mL

## Brc1ccccc1NCCCn1c2c(c3ccccc31)CCNC2.O=C(O)C(F)(F)F
[1]
  MIC80: 8 µg/mL

## C1=CCN(CCCn2c3c(c4ccccc42)CCNC3)C1
[1]
  MIC80: 64 µg/mL (≈ 227 µM)

## Cc1ccc2c3c(n(CCCOc4ccc(Cl)cc4)c2c1)CNCC3.O=C(O)C(F)(F)F
[1]
  MIC80: 2 µg/mL

## Clc1cccc(NCCCn2c3c(c4ccccc42)CCNC3)c1.O=C(O)C(F)(F)F
[1]
  MIC80: 8 µg/mL

## Cc1ncc2n1-c1ccc(Cl)cc1C(c1ccccc1F)=NC2 [MIDAZOLAM]
[20]
  half-life at 1 µM: 2 min

— ChEMBL document CHEMBL4400538, “Discovery of Carboline Derivatives as Potent Antifungal Agents for the Treatment of Cryptococcal Meningitis” (J Med Chem, 2019)
